{
  "source": "patent US12065468B2",
  "about": "“Heme-binding small peptide” (priority 2021, dated 2024)",
  "key": {"Cytochrome c": {"test_system": "Cytochrome c", "experiment": "UV-Vis test of heme sequestration from Cytochrome c", "assay_type": "binding", "settings": "excess NCR247", "description": "FIG. 13. […] The absorption spectrum of Cytochrome c remains unaltered even after addition of excess NCR247.\n(§1) UV-VIS spectroscopy: All absorption spectra were collected in a Tecan Spark™ 10 M microplate reader using black polystyrene 96-well plates. Absorbance from 300 nm to 700 nm was recorded with a 5 nm interval after an initial shaking at 100 rpm for 15 secs. Heme binding to synthesized peptide: Water (pH 7.4) was used in all reactions and was first added to the wells. Peptides solubilized in water were added and then heme solubilized in 0.1 M NaOH was added, mixed thoroughly and measurements were taken immediately. Peptide and heme volume were kept to a maximum of 5 ul in volume. For all the absorption curves (except Extended FIG. 3a) […] was used. The same was also repeated with 0.1 M Tris buffer (pH 7.4) as a base buffer instead of water."}, "[1]": {"test_system": "Human red blood cells (hRBC)", "experiment": "Haemolysis assay", "assay_type": "cell-based", "settings": "1.5 h at 37° C., 4% hRBC; listed as L-NCR247", "description": "Haemolysis assay: Standard methods of hemolysis assay as previously published was followed^96. Human red blood cells (hRBC) were washed three times with phosphate-buffered saline (PBS: 10 mM Na2HPO4, 1.76 mM K2HPO4, pH 7.4, containing […], and 2.7 mM KCl). Two-fold serial dilutions of the peptide solutions were then added to 50 μl aliquots of hRBC in PBS to adjust a final volume to 100 μl and hRBC concentration to 4% (v/v) in each well of a 96-well plate. The suspension was incubated for 1.5 h at 37° C. under stirring at 1000 rpm. The plates were centrifuged at 2000 g for 5 min. Supernatant aliquots of 50 μl were transferred into flat-bottomed 96-well microplates, and the release of hemoglobin was monitored by measuring the absorbance at 405 nm in a microplate reader. hRBC in PBS (0% lysis control) and 0.1% Triton X-100 (100% lysis control) were used as negative and positive controls, respectively. Hemolytic activity was expressed as a percentage of hemolysis calculated according to the following equation: Hemolysis (%)=(OD405nm sample—OD405nm 0% lysis control)/(OD405nm 100% lysis control−OD405nm 0% lysis control)*100."}, "[2]": {"experiment": "Peroxidase assay of heme on TMB", "assay_type": "biochemical", "settings": "5 μM NCR247 + 5 μM heme", "description": "Peroxidase assay: Pierce TMB Substrate Kit was used to measure the peroxidase activity of the heme and equimolar NCR247 was added to heme according to the manufacturer's instructions. In short, 100 μL of TMB substrate solution (1:1 of TMB substrate and Peroxide solution) was added to 96 well black, polystyrene flat bottomed, non-treated, sterile plates. 5 μM heme or 5 μM NCR247+5 μM heme was added to the wells and the progression of the reaction was measured in a Tecan Spark™ plate reader. UV-Vis absorption values at 370 nm and 652 nm are noted every minute over a time period of 16 mins."}, "Aβ-heme complex": {"target": "T1, Aβ-heme complex (Homo sapiens, UniProt P05067)", "T1 construct": "equimolar addition of NCR247 to the Aβ (1-42) amyloid peptide-heme complex; purchased Genscript", "T1 sequence (P05067 672-713, one chain of several)": "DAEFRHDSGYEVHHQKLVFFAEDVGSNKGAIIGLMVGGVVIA", "experiment": "UV-Vis spectrum of Aβ-heme complex with NCR247", "assay_type": "binding", "description": "FIG. 4. […] In a, b and e, data are presented as mean of three independent replicates ±s.d. In a and b ****P<0.0001 vs untreated sample; two-way analysis of variance (ANOVA) with multiple comparisons.\nas §1"}, "S. meliloti": {"test_system": "S. meliloti", "experiment": "Radioactive 55Fe uptake assay", "assay_type": "cell-based, Sinorhizobium meliloti", "settings": "2 μM, medium with sufficient iron", "description": "Iron uptake assay: Radioactive ^55Fe uptake assays were performed as described previously^66 with some modifications. Cells were grown in LB to an O.D.600 nm of 0.2. 20 ml cultures were then spun down, and suspended in 20 ml minimal media with 5 μM FeSO4 for 1 hour. 2 μM NCR247 and then 100 μM sodium ascorbate was added, and cells were incubated for additional 30 mins. At time 0, 1 μM^55FeCl3 mixed with ascorbate was added. At given time points, 1 ml aliquots were taken and quenched in 3 ml of ice-cold quench buffer (0.1M Tris, 1 mM ascorbate, and 100 μM FeSO4, pH 6.0). The cells were collected immediately after quenching on 0.45-μm filters, presoaked in quench buffer using a Millipore sigma 1225 vacuum filtration unit. The radioactive ^55Fe content of the filters with cells was counted using a scintillation counter. Internalized ^55Fe levels were normalized to the protein levels in the cell."}, "Candida albicans": {"test_system": "Candida albicans", "experiment": "C. albicans biofilm formation", "assay_type": "cell-based"}, "ctrA": {"test_system": "ctrA", "experiment": "qRT-PCR of ctrA", "assay_type": "cell-based, Sinorhizobium meliloti", "settings": "2 μM, 30 mins; listed as L-NCR247", "description": "FIG. 16. […] The data are expressed as starting quantities (SQ) of respective mRNAs normalized to the control gene SMc00128 and are presented as average of three technical replicates\nRNA isolation and qRT-PCR analysis: Cells were grown in LB until they reached an O.D.600 nm of 0.2. Then cells were spun down and suspended in minimal media with or without appropriate FeSO4 concentrations for 1 hour. NCR247 was then added and 5 ml of appropriate cultures were spun down at given time intervals. Total RNA was extracted using Trizol™ (Thermo Fisher Scientific) method. Qiagen RNeasy™ kit was used to purify the RNA. On-column DNA removal was carried out using DNase I from NEB. 500 ng of each RNA sample was used to make cDNA using the iScript™ cDNA synthesis kit (Biorad). qRT-PCRs were performed as described previously^86. The standard curve method was used for relative quantification. In short, a standard curve was generated for each gene of interest (including SMc00128) by setting up qpCR reactions to amplify increasing amounts of S. meliloti Rm 1021 genomic DNA. […] This curve was then used for extrapolating relative expression level of each gene of interest in a particular sample to obtain the starting quantities (SQ). […] These normalized values are then expressed as an average of triplicates, with standard deviation (s.d.) represented by the error bars. […]"}},
  "note": "Entries after “also recorded” stand apart in the source; their conditions may differ.",
  "data": [
    {"sequence": "RNGCIVDPRCPYQQCRRPLYCRRR [NCR247]", "values": [
      {"measurement": "sequestration of heme from Cytochrome c", "setting": "Cytochrome c", "value": "cannot sequester cytochrome heme; also recorded: inability of NCR247 to sequester heme from Cytochrome c"},
      {"measurement": "haemolytic activity", "setting": "[1]", "value": "did not detect haemolytic activities; also recorded: negligible hemolysis"},
      {"measurement": "peroxidase activity of heme", "setting": "[2]", "value": "intrinsic peroxidase activity of heme is quenched"},
      {"measurement": "removal of heme from Aβ-heme complex", "setting": "Aβ-heme complex", "value": "can strip the heme out of the Aβ-heme complex"},
      {"measurement": "uptake of 55Fe", "setting": "S. meliloti", "value": "markedly increased the import of ^55Fe"},
      {"measurement": "C. albicans biofilm formation", "setting": "Candida albicans", "value": "interferes with the ability of the opportunistic fungal pathogen Candida albicans to form biofilms; also recorded: can inhibit Candida albicans biofilms"},
      {"measurement": "expression of ctrA", "setting": "ctrA", "value": "lowers the expression of CtrA; also recorded: decrease in expression of ctrA"}
    ]}
  ]
}
